Results from patent US5681961A, “Arylsulphonamides, pharmaceutical compositions containing these compounds and processes for preparing them” (Dr. Karl Thomae GmbH, priority 1989, dated 1997).
pEC50, pIC50: −log10 of the molar value. “And” between values parts separate entries of the source, which are not always exact repeats. Identical values can stand only once.

Columns and labels:
thromboxane synthetase = target: T1, thromboxane synthetase (Homo sapiens, UniProt P24557); assay: Inhibitory effect on thromboxane synthetase (TXB2 formation from arachidonic acid in human platelets); type: biochemical; settings: inhibition of TXB2 formation, human platelet suspension, 14C-arachidonic acid
T1 construct: endogenous in cells; host or cells: washed human platelets (platelet-rich plasma passed through Sepharose 2B)
T1 sequence (P24557 1-533): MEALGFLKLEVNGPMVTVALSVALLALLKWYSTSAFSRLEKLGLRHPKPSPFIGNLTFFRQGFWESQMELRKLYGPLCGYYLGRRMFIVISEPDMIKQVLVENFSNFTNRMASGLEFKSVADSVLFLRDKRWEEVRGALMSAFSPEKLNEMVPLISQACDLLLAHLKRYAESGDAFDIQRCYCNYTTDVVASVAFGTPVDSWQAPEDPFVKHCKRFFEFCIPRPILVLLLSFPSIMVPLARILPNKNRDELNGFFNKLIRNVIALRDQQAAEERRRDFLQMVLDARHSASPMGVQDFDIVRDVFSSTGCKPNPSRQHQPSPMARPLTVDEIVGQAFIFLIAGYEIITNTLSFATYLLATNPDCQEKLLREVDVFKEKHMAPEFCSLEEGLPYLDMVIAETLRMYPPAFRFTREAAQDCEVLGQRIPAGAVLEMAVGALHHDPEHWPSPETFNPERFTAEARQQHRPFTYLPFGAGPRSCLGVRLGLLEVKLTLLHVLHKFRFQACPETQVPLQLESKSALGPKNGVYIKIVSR
Description: Venous human blood is anti-coagulated with 13 mM Na3 citrate and centrifuged for 10 minutes at 170×g. The supernatant platelet-rich plasma is passed through a Sepharose 2B column in order to remove the plasma proteins. Aliquots of the platelet suspension obtained are incubated with the test substance or with a solvent as control for 10 minutes at ambient temperature and after the addition of ^14 C-labelled arachidonic acid incubation is continued for a further 10 minutes. After this has been stopped with 50 μl of citric acid, extraction is carried out 3× with 500 μl of ethyl acetate and the combined extracts are distilled off with nitrogen. The residue is taken up in ethyl acetate, placed on TLC film and separated with chloroform:methanol:glacial acetic acid:water (90:8:1:0.8, v/v/v/v). The dried TLC films are placed on X-ray film for 3 days, the autoradiograms were developed and the active zones were marked on the film using the autoradiograms. After cutting out, the activity is measured in a scintillation counter and the inhibition of the formation of TXB2 is calculated. The IC50 is determined by linear interpolation.

thromboxane = target: T2, thromboxane (Homo sapiens, UniProt P21731); assay: Thromboxane-antagonistic activity: displacement of 3H-labelled ligand on washed human platelets; type: binding; settings: displacement of 3H-ligand, human platelet suspension, 60 min ambient temperature
T2 construct: endogenous in cells; host or cells: washed human platelets (platelet-rich plasma passed through Sepharose 2B)
T2 sequence (P21731 1-343): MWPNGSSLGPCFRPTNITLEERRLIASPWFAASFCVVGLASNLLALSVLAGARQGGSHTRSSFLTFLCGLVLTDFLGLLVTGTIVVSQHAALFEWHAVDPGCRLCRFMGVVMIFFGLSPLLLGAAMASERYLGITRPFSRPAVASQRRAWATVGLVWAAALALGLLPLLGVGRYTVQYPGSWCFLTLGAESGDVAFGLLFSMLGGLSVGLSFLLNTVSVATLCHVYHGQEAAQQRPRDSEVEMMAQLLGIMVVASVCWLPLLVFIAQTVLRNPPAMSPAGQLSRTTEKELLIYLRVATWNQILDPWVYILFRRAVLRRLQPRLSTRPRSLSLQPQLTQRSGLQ
Description: Venous human blood is anti-coagulated with 13 mM Na3 citrate and centrifuged for 10 minutes at 170×g. The supernatant platelet-rich plasma is passed through a Sepharose 2B column in order to remove the plasma proteins. Aliquots of the platelet suspension obtained are incubated with the test substance, the ligand (^3 H-labelled) and a marker ([…]) for 60 minutes at ambient temperature and then centrifuged for 20 seconds at 10,000×g. The supernatant is removed and the pellet is dissolved in NaOH. The ^3 H activity in the supernatant corresponds to the free ligand, ^14 C gives the concentration of the marker. ^3 H in the pellet corresponds to the bound ligand whilst ^14 C is used to correct for the ligand in the extracellular space. After the process has been repeated, the displacement curve is determined from the binding values for different concentrations of the test substance and the IC50 is determined.

[1] = tested on: collagen-induced thrombocyte aggregation in platelet-rich plasma; assay: Antithrombotic activity: collagen-induced thrombocyte aggregation (Born and Cross); type: cell-based, human (healthy volunteers); settings: Homo sapiens, 10 min, 10 min incubation at 37° C.
Description: The thrombocyte aggregation is measured using the Born and Cross method (J. Physiol. 170: 397 (1964)) in platelet-rich plasma taken from healthy volunteers. To inhibit coagulation the blood is mixed with 3.14% sodium citrate in a ratio by volume of 1:10.
The pattern of the decrease in optical density of the platelet suspension is photometrically measured and recorded after the addition of aggregation-triggering substance. The rate of aggregation is concluded from the angle of inclination of the density curve. The point on the curve where there is maximum light transmittance is used to calculate the optical density.
The amount of collagen used is as small as possible but sufficient to produce an irreversible reaction curve. Standard commercial collagen produced by Hormonchemie of Munich is used. Before the addition of the collagen the plasma is incubated for 10 minutes with the substance at 37° C.
From the measurements obtained an EC50 is determined graphically, indicating a 50% change in the optical density in terms of the inhibition of aggregation.

mice = assay: Acute toxicity, oral, mice; type: in vivo, mouse; settings: observation period 14 days; for animals died: 250 mg/kg single oral dose; for Approximate acute toxicity: single oral dose
Description: The acute toxicity of the test substances was determined as a guide on groups of 10 mice after oral administration of a single dose (observation period: 14 days): […]

[2] = tested on: lethal effects of endotoxin (E. coli 0111:B4 lipopolysaccharide); assay: Inhibition of the lethal effects of endotoxin; type: in vivo, rat (male Sprague-Dawley)
Description: Male Sprague-Dawley rate are primed by intravenous injection with 0.1 mg/kg of endotoxin (a lipopolysaccharide from E. coli 0111:B4) one week before the main study. In the main study, a potentially lethal dose of E. coli (40 mg/kg) is injected intravenously and the subsequent mortality recorded over an observation period of seven days.
The test animals are given test substance B as a suspension in 0.5% tylose by oral route one hour before and 4, 8, 24 and 48 hours after the second injection of endotoxin.

[3] = tested on: bronchospasm induced by arachidonic acid; assay: Inhibition of bronchospasm induced by arachidonic acid; type: in vivo, guinea-pig; settings: Cavia porcellus, iv; guinea-pigs, injected 10 min before arachidonic acid (0.5-2.0 mg/kg i.v.); graphical extrapolation
Description: Guinea-pigs anaesthetised with ethyl urethane and ventilated artificially under pressure limitation are intravenously injected with arachidonic acid (a thromboxane precursor) and the consequent bronchospasms are recorded using a modified form of the method of Konzett and Rossler. The doses of arachidonic acid (0.5-2.0 mg/kg) are selected so as to give a 60% reduction in tidal volume. Increasing doses of test substance B are injected 10 minutes before the arachidonic acid. The percentage inhibition of reduction in tidal volume is determined by comparison of the maximum reduction after the administration of arachidonic acid and the corresponding value after pretreatment with the test substance.

[4] = tested on: production of thromboxane and PGE2 in an isolated lung; assay: Effect on production of thromboxane and PGE2 in an isolated lung; parameters: species or system guinea-pig
Description: Guinea-pigs are killed by a blow to the neck, the lungs are rapidly removed and washed with a tyrode solution through the pulmonary artery. The lung is perfused with the same solution (0.5 ml/min.) and ventilated under negative pressure (frequency: 52 breaths per minute, maximum pressure -20 cm H2 O). A 0.1 ml bolus of bradykinin (0.2 μM) is injected via the pulmonary arteria on two occasions, with approximately 60 minutes between boli. From 30 minutes before the second bradykinin injection 1 μM of substance B is continually added to the lung perfusate. The control lungs are perfused without the added substance. The perfusate is collected for 2 minutes be administration of bradykinin and 10 minutes thereafter. The samples are left to stand for 20 minutes at ambient temperature (conversion of thromboxane A2 into B2) and are then frozen at -20° C.
The concentrations of thromboxane B2 and PGE2 are determined by radioimmunoassay.

[5] = 1 mg/kg oral at each dosage time point (1 h before, 4, 8, 24, 48 h after endotoxin)
[6] = 10 mg/kg oral at each dosage time point (1 h before, 4, 8, 24, 48 h after endotoxin)

Compound | pIC50 (thromboxane synthetase) | pIC50 (thromboxane) | pEC50 [1] | animals died (mice) | Approximate acute toxicity (mice) | Rats alive/total after 2 days [2, 5] | Rats alive/total after 7 days [2, 5] | Rats alive/total after 2 days [2, 6] | Rats alive/total after 7 days [2, 6] | ED50 [3] | effect on formation of PGE2 (in words) ([4]; 1 μM in lung perfusate) | effect on thromboxane production (in words) ([4]; 1 μM in lung perfusate) | Ratio of mediator release after 2nd / after 1st administration of bradykinin: Thromboxane B2 ([4]; 1 μM in perfusate at time of 2nd bradykinin, individual values, control 1.18, 0.50, 0.84) | Ratio of mediator release after 2nd / after 1st administration of bradykinin: PGE2 ([4]; 1 μM in perfusate at time of 2nd bradykinin, individual values, control 1.28, 1.12, 1.09)
O=C(O)CCCC=C(c1ccc(CCNS(=O)(=O)c2ccc(C(F)(F)F)cc2)cc1)c1cccnc1 [E] | 8.22 | 7.55 | 7.00 | 0 out of 10 | 250 mg/kg |  |  |  |  |  |  |  |  | 
O=C(O)CCCCC(c1cccnc1)c1ccc2c(c1)CC(NS(=O)(=O)c1ccc(Cl)cc1)C2 (stereo not shown) [C] | 8.52 | 7.10 | 6.52 | 0 out of 10 | 250 mg/kg |  |  |  |  |  |  |  |  | 
Cc1ccc(S(=O)(=O)NC2Cc3ccc(C(=CCCCC(=O)O)c4cccnc4)cc3C2)cc1 (stereo not shown) [A] | 8.52 | 7.64 | 6.52 | 0 out of 10 | 250 mg/kg |  |  |  |  |  |  |  |  | 
O=C(O)CCCC=C(c1ccc(CCNS(=O)(=O)c2ccc(Cl)cc2)cc1)c1cccnc1 [B] | 9.10 | 7.70 | 6.82 | 0 out of 10 | 250 mg/kg | 7/10 | 6/10 | 8/10 | 5/10 | 8.1 µg/kg | promoting the formation of PGE2 | hinders thromboxane production | 0.0 | 5.08 and 2.23
O=C(O)CCCCC(c1ccc(CCNS(=O)(=O)c2ccc(Cl)cc2)cc1)c1cccnc1 (stereo not shown) [D] | 9.00 | 7.10 | 5.92 | 0 out of 10 | 250 mg/kg |  |  |  |  |  |  |  |  | 
